Measurements published in patent publication US20250154135A1, “M-CHOLINE RECEPTOR AGONIST COMPOUND, PREPARATION METHOD THEREFOR AND USE THEREOF” (NANJING GRITPHARMA CO., LTD., priority 2022, published 2025).
“And” between values parts separate entries of the source, which are not always exact repeats. Equal values may be shown once.

Key:
rabbit pupil = experiment: Rabbit pupil diameter change, pilocarpine p-toluate at different concentrations (Test Example 3); format: in vivo
Protocol: Under the condition of normal saline, the onset time, strength of effect, duration of effect, and irritation of 1.25% pilocarpine hydrochloride and different concentrations (0.88%, 1.75%, 3.50%) of pilocarpine p-toluate were tested.
Each rabbit was subjected to eye drop administration in the left eye (using a pipette), with an administration volume of 100 μL.
Number of animals: 6 rabbits per compound.
Administration schedule: single administration.
• the pupil diameter of the left eye of the rabbits was measured at time points of −0.5 h (i.e., half an hour before administration), 5 min, 10 min, 15 min, 0.5 h, 3 h and 4 h relative to administration, with the measurement performed 3 times for each rabbit at each time point.

rabbit eyes = experiment: Irritation to rabbit eyes (Test Example 3); format: in vivo; conditions: 0.88% compared with 3.50%
Text: Irritation: examined concurrently with the pupil diameter.
The numerical results of pupil changes are shown in Tables 3-1 to 3-4, and the changes in eye irritation phenomenon are shown in FIGS. 13 and 14.

In the case of `CC[C@@H]1C(=O)OC[C@@H]1Cc1cncn1C` [JQ-6, Pilocarpine p-toluate], the “strength of effect at each time point compared to 1.25% pilocarpine hydrochloride” value (“strength … to 1.25% pilocarpine hydrochloride” for short) (rabbit pupil; 0.88% (half molar concentration of pilocarpine)) is reported as “demonstrated increased strength of effect at each time point”, the “Percentage change in pupil diameter” value (rabbit pupil; 0.88%, 5 min, average of 6 rabbits) is reported as −10.07% and the “Percentage change in pupil diameter” value (rabbit pupil; 0.88%, 5 min, individual rabbit) is reported as −4.80% and −6.70% and −13.54% and −9.41% and −12.03% and −13.93%. For the same compound, the “Percentage change in pupil diameter” value (rabbit pupil; 0.88%, 10 min, average of 6 rabbits) was −36.21%, the “Percentage change in pupil diameter” value (rabbit pupil; 0.88%, 10 min, individual rabbit) was −33.75% and −34.62% and −30.54% and −48.90% and −41.07% and −28.39% and the “Percentage change in pupil diameter” value (rabbit pupil; 0.88%, 15 min, average of 6 rabbits) was −40.86%. For the same compound, the “Percentage change in pupil diameter” value (rabbit pupil; 0.88%, 15 min, individual rabbit) was −43.40% and −41.17% and −36.73% and −43.68% and −50.07% and −30.13%, the “Percentage change in pupil diameter” value (rabbit pupil; 0.88%, 0.5 h, average of 6 rabbits) was −37.44% and the “Percentage change in pupil diameter” value (rabbit pupil; 0.88%, 0.5 h, individual rabbit) was −36.60% and −41.12% and −36.25% and −37.28% and −44.65% and −28.71%. For the same compound, the “Percentage change in pupil diameter” value (rabbit pupil; 0.88%, 3 h, average of 6 rabbits) was −10.34%, the “Percentage change in pupil diameter” value (rabbit pupil; 0.88%, 3 h, individual rabbit) was −9.65% and −14.66% and −12.43% and −7.91% and −14.57% and −2.85% and the “Percentage change in pupil diameter” value (rabbit pupil; 0.88%, 4 h, average of 6 rabbits) was 0.70%. For the same compound, the “Percentage change in pupil diameter” value (rabbit pupil; 0.88%, 4 h, individual rabbit) was 3.67% and −2.65% and 4.83% and −0.54% and −1.39% and 0.26%, the “strength … to 1.25% pilocarpine hydrochloride” value (rabbit pupil; 1.75% (same molar concentration of pilocarpine)) was “the increase in strength of effect at each time point was more significant” and the “Percentage change in pupil diameter” value (rabbit pupil; 1.75%, 5 min, individual rabbit) was −18.36% and −12.49% and −14.04%. The “Percentage change in pupil diameter” value (rabbit pupil; 1.75%, 10 min, individual rabbit) was −44.23% and −37.19% and −44.10%, the “Percentage change in pupil diameter” value (rabbit pupil; 1.75%, 15 min, individual rabbit) was −49.50% and −43.41% and −45.41% and the “Percentage change in pupil diameter” value (rabbit pupil; 1.75%, 0.5 h, individual rabbit) was −47.81% and −42.82% and −44.78%. The “Percentage change in pupil diameter” value (rabbit pupil; 1.75%, 3 h, individual rabbit) was −12.34% and −6.91%, the “Percentage change in pupil diameter” value (rabbit pupil; 1.75%, 4 h, individual rabbit) was −0.45% and −0.05% and the “strength … to 1.25% pilocarpine hydrochloride” value (rabbit pupil; 3.50% (2 times molar concentration of pilocarpine)) was “significantly enhanced”. The “irritation to rabbit eyes” value (rabbit eyes) was “significantly lower than that caused by the 3.50% pilocarpine p-toluate”.
